# Measured values taken from patent US20240270740A1, “INHIBITORS OF CYCLIC GMP-AMP SYNTHASE AND USES THEREOF” (Ventus Therapeutics U.S., Inc., priority 2022, published 2024).
# Target: hcGAS (Homo sapiens, UniProt Q8N884)
# Assay: hcGAS LCMS assay (direct measurement of cGAMP production)
# Type: biochemical
# Settings: 0.5 nM hcGAS, 100 μM ATP, 100 μM GTP, 25 nM dsDNA, 4 h incubation
# Description: cGAS catalyzes the cyclization of ATP and GTP to produce cGAMP, which is the activating ligand of STING. Human cGAS (hcGAS) inhibition can thus be quantified by measuring how much cGAMP is formed either indirectly, by monitoring ATP-depletion as in the hcGAS Kinase-Glo assay (as described below), or directly, such as using the hcGAS LCMS assay (as described below).
# Compounds were tested for their h-cGAS inhibition activity using direct measurement of cGAMP production by LC/MS. Briefly, compounds were incubated with enzyme and substrates for 4 hours (see Table C), before the reaction was stopped with 3 volumes of 70/30 Acetonitrile/H2O mix containing 0.15 mM cGAMP-^13C10^5N5 as internal standard and mixed for […]. After centrifugation (3700 rpm, 10 min, 10° Celsius), […] of each reaction was collected and mixed to equal volume of Acetonitrile. Samples were then analyzed on Qexective (Column: XBridge BEH Amide Column, 130 Å, 3.5 μm, 3 mm×50 mm, Mobile phase A: 10 mM Ammonium acetate in 95/5% H2O/Acetonitrile (0.5% DMSO), Mobile phase B: Acetonitrile (0.5% DMSO).
# The results of the assay, expressed as IC50 values, are reported in Table D with the following designations: A represents an IC50 value<0.005 μM; B represents an IC50 value≥0.005 μM and <0.02 μM, C represents an IC50 value≥0.02 μM and <0.06 μM; D represents an IC50 value≥0.06 and <0.2 μM; E represents an IC50 value≥0.2.
# Sequence of hcGAS (Q8N884 whole entry): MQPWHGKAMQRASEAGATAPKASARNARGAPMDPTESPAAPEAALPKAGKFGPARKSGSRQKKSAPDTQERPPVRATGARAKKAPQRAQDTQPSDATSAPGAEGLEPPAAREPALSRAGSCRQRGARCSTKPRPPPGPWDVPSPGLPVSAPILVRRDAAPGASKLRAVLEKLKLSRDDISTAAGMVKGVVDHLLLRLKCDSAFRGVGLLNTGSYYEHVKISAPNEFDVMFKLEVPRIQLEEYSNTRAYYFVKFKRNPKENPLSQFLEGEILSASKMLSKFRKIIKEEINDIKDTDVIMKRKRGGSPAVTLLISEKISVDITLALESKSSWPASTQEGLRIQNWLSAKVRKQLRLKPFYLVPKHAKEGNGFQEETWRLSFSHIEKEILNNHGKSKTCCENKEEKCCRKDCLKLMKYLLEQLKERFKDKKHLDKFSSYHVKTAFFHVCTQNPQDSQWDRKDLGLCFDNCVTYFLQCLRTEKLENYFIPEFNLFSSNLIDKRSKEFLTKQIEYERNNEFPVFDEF
row,Compound,IC50 [nM]
1,"COc1c(N[C@@H]2CCC[C@@H]2OC)cc(C(=O)Nc2nnc(-n3nccc3C)s2)oc1=O (single isomer, unassigned) [215*]",5 to 20
2,"COc1c(N2CC[C@@H](OC)C2=O)cc(C(=O)Nc2nnc(-n3nccc3C)s2)oc1=O [Compound 150, (R)-3-methoxy-4-(3-methoxy-2-oxopyrrolidin-1-yl)-N-(5-(5-methyl-1H-pyrazol-1-yl)-1,3,4-thiadiazol-2-yl)-2-oxo-2H-pyran-6-carboxamide]",5 to 20
3,"COc1c(NCCO[C@@H]2CCOC2)cc(C(=O)Nc2nnc(-n3nccc3C)s2)oc1=O [Compound 169, 5-methoxy-N-[5-(5-methylpyrazol-1-yl)-1,3,4-thiadiazol-2-yl]-6-oxo-4-({2-[(3R)-oxolan-3-yloxy]ethyl}amino)pyran-2-carboxamide]",≥ 200
4,"COc1c(N[C@H]2CCCC[C@H]2OC)cc(C(=O)Nc2nnc(-n3nccc3C)s2)oc1=O [Compound 27, 3-methoxy-4-(((1S,2R)-2-methoxycyclohexyl)amino)-N-(5-(5-methyl-1H-pyrazol-1-yl)-1,3,4-thiadiazol-2-yl)-2-oxo-2H-pyran-6-carboxamide]",5 to 20
5,"COc1c(NC2CCC23COC3)cc(C(=O)Nc2nnc(-n3nccc3C)s2)oc1=O (racemic) [Rac-56, 4-((2-oxaspiro[3.3]heptan-5-yl)amino)-3-methoxy-N-(5-(5-methyl-1H-pyrazol-1-yl)-1,3,4-thiadiazol-2-yl)-2-oxo-2H-pyran-6-carboxamide]",5 to 20
6,"COc1c(NC[C@H]2CCO2)cc(C(=O)Nc2nnc(-n3nccc3C)s2)oc1=O [Compound 118, (R)-3-methoxy-N-(5-(5-methyl-1H-pyrazol-1-yl)-1,3,4-thiadiazol-2-yl)-4-((oxetan-2-ylmethyl)amino)-2-oxo-2H-pyran-6-carboxamide]",5 to 20
7,"COc1c(NC23CCC(CC2)CC3)cc(C(=O)Nc2nnc(-n3nccc3C)s2)oc1=O [Compound 18, 4-(bicyclo[2.2.2]octan-1-ylamino)-3-methoxy-N-(5-(5-methyl-1H-pyrazol-1-yl)-1,3,4-thiadiazol-2-yl)-2-oxo-2H-pyran-6-carboxamide]",< 5
8,"COc1c(N(C)[C@@H]2CCC[C@@H]2O)cc(C(=O)Nc2nnc(-n3nccc3C)s2)oc1=O (racemic) [Rac-159, 4-(((cis)-2-hydroxycyclopentyl)(methyl)amino)-3-methoxy-N-(5-(5-methyl-1H-pyrazol-1-yl)-1,3,4-thiadiazol-2-yl)-2-oxo-2H-pyran-6-carboxamide]",5 to 20
9,"COc1c(NC[C@H](C)OC)cc(C(=O)Nc2nnc(-c3c(Cl)ccn3C)s2)oc1=O [Compound 193, (S)-N-(5-(3-chloro-1-methyl-1H-pyrrol-2-yl)-1,3,4-thiadiazol-2-yl)-3-methoxy-4-((2-methoxypropyl)amino)-2-oxo-2H-pyran-6-carboxamide]",< 5
10,COCC1(Nc2cc(C(=O)Nc3nnc(-n4nccc4C)s3)oc(=O)c2OC)CCC1 [Compound 196],5 to 20
11,"COC[C@@H](C)Nc1cc(C(=O)Nc2nnc(-c3c(Cl)ccn3C)s2)oc(=O)c1OC [Compound 128, (R)-N-(5-(3-chloro-1-methyl-1H-pyrrol-2-yl)-1,3,4-thiadiazol-2-yl)-3-methoxy-4-((1-methoxypropan-2-yl)amino)-2-oxo-2H-pyran-6-carboxamide]",< 5
12,"COc1c(N[C@@H]2CCC[C@@H]2O)cc(C(=O)Nc2nnc(-c3c(Cl)ccn3C)s2)oc1=O [Compound 197, N-(5-(3-chloro-1-methyl-1H-pyrrol-2-yl)-1,3,4-thiadiazol-2-yl)-4-(((1R,2S)-2-hydroxycyclopentyl)amino)-3-methoxy-2-oxo-2H-pyran-6-carboxamide]",5 to 20
13,"COC[C@@H](C1CC1)N1CCOc2c1cc(C(=O)Nc1nnc(-n3nccc3C)s1)oc2=O [Compound 225, (R)-1-(1-cyclopropyl-2-methoxyethyl)-N-(5-(5-methyl-1H-pyrazol-1-yl)-1,3,4-thiadiazol-2-yl)-5-oxo-1,2,3,5-tetrahydropyrano[3,4-b][1,4]oxazine-7-carboxamide]",< 5
14,"COC[C@@H](C)Nc1cc(C(=O)Nc2nnc(-n3nccc3CO)s2)oc(=O)c1OC [Compound 142, (R)—N-(5-(5-(hydroxymethyl)-1H-pyrazol-1-yl)-1,3,4-thiadiazol-2-yl)-3-methoxy-4-((1-methoxypropan-2-yl)amino)-2-oxo-2H-pyran-6-carboxamide]",20 to 60
15,"COc1c(N[C@@H]2COC[C@H]2OC)cc(C(=O)Nc2nnc(-n3nccc3C)s2)oc1=O [Compound 102, 3-methoxy-4-(((3R,4S)-4-methoxytetrahydrofuran-3-yl)amino)-N-(5-(5-methyl-1H-pyrazol-1-yl)-1,3,4-thiadiazol-2-yl)-2-oxo-2H-pyran-6-carboxamide]",5 to 20
16,"COc1c(N[C@@H]2CCN(C)C2=O)cc(C(=O)Nc2nnc(-n3nccc3C)s2)oc1=O (single isomer, unassigned) [72*]",5 to 20
17,"COc1c(NCCOC2CC2)cc(C(=O)Nc2nnc(-n3nccc3C)s2)oc1=O [Compound 168, 4-((2-cyclopropoxyethyl)amino)-3-methoxy-N-(5-(5-methyl-1H-pyrazol-1-yl)-1,3,4-thiadiazol-2-yl)-2-oxo-2H-pyran-6-carboxamide]",60 to 200
18,"COc1c(N[C@@H]2CCCC[C@@H]2OC)cc(C(=O)Nc2nnc(-n3nccc3C)s2)oc1=O [Compound 52, 3-methoxy-4-(((1R,2S)-2-methoxycyclohexyl)amino)-N-(5-(5-methyl-1H-pyrazol-1-yl)-1,3,4-thiadiazol-2-yl)-2-oxo-2H-pyran-6-carboxamide]",5 to 20
19,"COc1c(NC2COC(C)(C)OC2)cc(C(=O)Nc2nnc(-n3nccc3C)s2)oc1=O [Compound 195, 4-((2,2-dimethyl-1,3-dioxan-5-yl)amino)-3-methoxy-N-(5-(5-methyl-1H-pyrazol-1-yl)-1,3,4-thiadiazol-2-yl)-2-oxo-2H-pyran-6-carboxamide]",5 to 20
20,"COCCOc1c(N[C@@H](COC)c2ccccc2)cc(C(=O)Nc2nnc(-c3c(Cl)ccn3C)s2)oc1=O [Compound 201, (R)—N-(5-(3-chloro-1-methyl-1H-pyrrol-2-yl)-1,3,4-thiadiazol-2-yl)-4-((2-methoxy-1-phenylethyl)amino)-3-(2-methoxyethoxy)-2-oxo-2H-pyran-6-carboxamide]",< 5
21,"COc1c(N[C@H]2CCC[C@H]2OC)cc(C(=O)Nc2nnc(-c3c(Cl)ccn3C)s2)oc1=O (single isomer, unassigned) [47*]",< 5
22,"COCCNc1cc(C(=O)Nc2nnc(-c3c(Cl)nsc3Cl)s2)oc(=O)c1OC [Compound 156, N-(5-(3,5-dichloroisothiazol-4-yl)-1,3,4-thiadiazol-2-yl)-3-methoxy-4-((2-methoxyethyl)amino)-2-oxo-2H-pyran-6-carboxamide]",60 to 200
23,"COc1c(NC[C@@H]2CCO2)cc(C(=O)Nc2nnc(-n3nccc3C)s2)oc1=O [Compound 93, (S)-3-methoxy-N-(5-(5-methyl-1H-pyrazol-1-yl)-1,3,4-thiadiazol-2-yl)-4-((oxetan-2-ylmethyl)amino)-2-oxo-2H-pyran-6-carboxamide]",20 to 60
24,COc1c(N[C@@H](C)[C@H](C)OC)cc(C(=O)Nc2nnc(-n3nccc3C)s2)oc1=O [Compound 163],60 to 200
25,"COc1c(N[C@@H](C)[C@@H](C)OC)cc(C(=O)Nc2nnc(-n3nccc3C)s2)oc1=O [Compound 207, 3-methoxy-4-(((2S,3R)-3-methoxybutan-2-yl)amino)-N-(5-(5-methyl-1H-pyrazol-1-yl)-1,3,4-thiadiazol-2-yl)-2-oxo-2H-pyran-6-carboxamide]",20 to 60
26,"COc1c(N[C@@H]2CC[C@@H]2OC)cc(C(=O)Nc2nnc(-c3c(Cl)ccn3C)s2)oc1=O (single isomer, unassigned) [Compound 132*]",5 to 20
27,"Cc1ccnn1-c1nnc(NC(=O)c2cc3c(c(=O)o2)OCCN3[C@H]2CCC[C@H]2C#N)s1 [Compound 224, 1-((1S,2R)-2-cyanocyclopentyl)-N-(5-(5-methyl-1H-pyrazol-1-yl)-1,3,4-thiadiazol-2-yl)-5-oxo-1,2,3,5-tetrahydropyrano[3,4-b][1,4]oxazine-7-carboxamide]",< 5
28,"COc1c(N[C@H]2COC[C@@H]2OC)cc(C(=O)Nc2nnc(-n3nccc3C)s2)oc1=O [Compound 13, 3-methoxy-4-(((3S,4R)-4-methoxytetrahydrofuran-3-yl)amino)-N-(5-(5-methyl-1H-pyrazol-1-yl)-1,3,4-thiadiazol-2-yl)-2-oxo-2H-pyran-6-carboxamide]",5 to 20
29,COc1c(NCC2(OC)CC2)cc(C(=O)Nc2nnc(-n3nccc3C)s2)oc1=O [Compound 190],5 to 20
30,"COc1c(N[C@H]2COC[C@H]2OC)cc(C(=O)Nc2nnc(-n3nccc3C)s2)oc1=O [Compound 160, 3-Methoxy-4-(((3S,4S)-4-methoxytetrahydrofuran-3-yl)amino)-N-(5-(5-methyl-1H-pyrazol-1-yl)-1,3,4-thiadiazol-2-yl)-2-oxo-2H-pyran-6-carboxamide]",5 to 20
